In patent publication US20120094958A1, “QUINOLINES AS INHIBITORS OF FARNESYL PYROPHOSPHATE SYNTHASE” (NOVARTIS AG, priority 2008, published 2012):
Where a name gives a salt, the structure may show the parent alone.

These compounds were tested against T1, FPPS (Farnesyl pyrophosphate synthase) (Homo sapiens, UniProt P14324) (assay: FPPS Assay: LC-MS Method). Conditions: GPP/IPP 5 μM each, reaction stopped after 10 minutes.
T1 sequence (P14324 1-353 isoform P14324-2): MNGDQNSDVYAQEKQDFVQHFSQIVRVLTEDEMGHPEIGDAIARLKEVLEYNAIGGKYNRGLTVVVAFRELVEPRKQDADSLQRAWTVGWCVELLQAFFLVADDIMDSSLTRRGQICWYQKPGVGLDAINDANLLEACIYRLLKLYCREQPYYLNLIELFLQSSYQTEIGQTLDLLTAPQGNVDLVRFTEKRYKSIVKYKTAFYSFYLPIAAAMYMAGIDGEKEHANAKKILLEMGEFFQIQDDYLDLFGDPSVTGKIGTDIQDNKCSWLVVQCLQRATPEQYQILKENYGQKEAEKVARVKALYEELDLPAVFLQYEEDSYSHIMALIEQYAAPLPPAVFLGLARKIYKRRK
Type: biochemical
Method: Recombinant human Farnesyl Pyrophosphate synthase (FPPS) was cloned, expressed and purified as previously described {J.-M. Rondeau et al., ChemMedChem 2006, 1, 267-271.} and stored as a 10 mg/mL stock solution in 25 mM Tris pH 7.4, 25 mM NaCl, 2 mM DTT (dithiothreitol). Geranyl pyrophosphate (GPP) was purchased from Anawa AG (Switzerland) and stored as a 1 mg/mL solution in 4 parts isopropanol:3 parts ammonia:1 part water. 1-[^3H]Isopentenyl pyrophosphate (IPP), 50 Ci/mmol; 1 Ci/mL, was purchased from Anawa AG and stored in ethanol:ammonia hydroxide 1:1 at −80 C. 1-[^3H] Farnesyl pyrophosphate triammonium salt, 100 Ci/mmol; 1 mCi/mL in 70% ethanol, 0.25 M ammonium bicarbonate was purchased from Anawa AG. Phospholipid-coated 384-well image FlashPlates™ were purchased from PerkinElmer. the assay buffer consisted of 20 mM HEPES pH7.4, 5 mM MgCl2 and 1 mM CaCl2.
Selected compounds are assayed in another FPPS based assay:
Into each well of a 384-well plate, 5 μL of compound in 20% DMSO/water is placed. 25 μL of GPP/IPP (5 μM each in assay buffer) is then added. The reaction is started with the addition of 10 μL of FPPS (diluted 1 to 10000 with assay buffer). After 10 minutes, the reaction is stopped by addition of 10 μL of 2 μM FSPP in 2% DMIPA/IPA. The reaction mixture is then extracted with 50 μL of n-pentanol using vortex mixing. After phase separation, 25 μL of the upper (n-pentanol) layer is transferred to a new 384-well plate and the pentanol is evaporated using a vacuum centrifuge. The dried residue is reconstituted in 50 μL of 0.1% DMIPA/water for analysis by the LC/MS/MS method.
LC/MS/MS analyses are performed on a Micromass Quattro Micro interfaced to an Agilent 1100 binary LC pump. Injection is performed by a Gilson 215/889 autosampler using an injection loop size of 2.5 μL. Chromatography is performed on a Waters 2.1×20 mm Xterra MS C18 5 μm guard column (P/N186000652) contained in a guard column holder (P/N 186000262) using 0.1% DMIPA/methanol as solvent A and 0.1% DMIPA/water as solvent B. The gradient is 5% A from 0.00 to 0.30 min, 50% A at 0.31 min, 80% A at 1.00 min, and 5% A from 1.01 to 2.00 min. The flow rate is 0.3 mL/min and the flow is diverted to waste from 0.00 to 0.50 min and again from 1.20 to 2.00 min.
The MRM transitions monitored are 381^−>79^− for FPP and 397^−>159^− for FSPP at a collision energy of 22 eV and a collision cell pressure of 2.1×10^−3 mbar of Ar. The dwell time per transition is 400 msec with a span of 0.4 Da. The interchannel delay and interscan delay are both 0.02 sec. Other mass spectrometric operating parameters are: capillary, 2.0 kV; cone, 35 V; extractor, 2.0 V, source temp., 100° C.; desolvation gas temp., 250° C.; desolvation gas flow, 650 L/hr; cone gas flow, 25 L/hr; multiplier, 650 V.
The total cycle time per sample is 2.5 minutes. Since the analysis is formatted for 384-well plates, a plate is analyzed in 16 hours. The chromatograms are processed using Quanlynx software, which divides the area of individual FPP peaks by the area of the FSPP peaks (internal standard). The resulting values are reported as the relative response for the corresponding sample well.

| Compound | IC50 [µM] |
| --- | --- |
| O=P(O)(O)c1ccc2cc(-c3ccco3)cc(-c3cccc4ccccc34)c2n1 [Example 27d.ii] | 0.9 |
| O=P(O)(O)c1ccc2cc(I)cc(-c3cccc4ccccc34)c2n1 [Example 21, (6-Iodo-8-naphthalen-1-yl-quinolin-2-yl)-phosphonic acid] | 0.507 |
| Nc1cccc2c(-c3cccc4ccc(C(=O)O)nc34)cccc12 [Example 39, 8-(5-Amino-naphthalen-1-yl)-quinoline-2-carboxylic acid] | 0.267 |
| CCOC(=O)Nc1cc(-c2cccc3ccccc23)c2nc(-c3nn[nH]n3)ccc2c1 [Example 50, N-[8-Naphthalen-1-yl-2-(2H-tetrazol-5-yl)-quinolin-6-yl]-carbamic acid ethyl ester] | 0.019 |
| Nc1cc(-c2cccc3ccccc23)c2nc(/C=C/P(=O)(O)O)ccc2c1 [Example 42, [(E)-2-(6-Amino-8-naphthalen-1-yl-quinolin-2-yl)-vinyl]-phosphonic acid] | 0.009 |
| CCOc1c(I)cc(-c2cccc3ccccc23)c2nc(C(=O)O)ccc12 [Example 33, 5-Ethoxy-6-iodo-8-naphthalen-1-yl-quinoline-2-carboxylic acid lithium salt] | 0.056 |
| O=C(Nc1cc(-c2cccc3ccccc23)c2nc(/C=C/P(=O)(O)O)ccc2c1)c1cccnc1 [Example 48, ((E)-2-{8-Naphthalen-1-yl-6-[(pyridine-3-carbonyl)-amino]-quinolin-2-yl}-vinyl)phosphonic acid] | 0.012 |

Each compound was assayed against T2, Recombinant human Farnesyl Pyrophosphate synthase (FPPS) (Homo sapiens, UniProt P14324) (assay: FPPS enzyme assay, scintillation proximity (FlashPlate)). Conditions: not given.
T2 construct: made in house
T2 sequence (P14324 1-353 isoform P14324-2): T1 sequence (P14324 1-353 isoform P14324-2)
Type: biochemical

| Compound | IC50 [µM] |
| --- | --- |
| O=C(O)c1ccc2cccc(-c3cccc4[nH]ccc34)c2n1 [Example 2.a.ii] | 6.5 |
| CCOP(=O)(Cc1ccc2cccc(-c3cccc4ccccc34)c2n1)OCC [Example 11.6, (8-Naphthalen-1-yl-quinolin-2-ylmethyl)-phosphonic acid diethyl ester] | > 100 |

Same assay, conditions: FlashPlate SPA; GPP 150 nM, [3H]-IPP 150 nM, FPPS 500 pM, 45 minutes at room temperature; highest concentration tested 100 μM; read-out: FPPS IC50

| IC50 [µM] | Compound |
| --- | --- |
| 0.14 | O=C(O)c1ccc2cc(-c3ccc[nH]3)cc(-c3cccc4ccccc34)c2n1 [Example 36, 8-Naphthalen-1-yl-6-pyrrol-2-yl-quinoline-2-carboxylic acid] |
| 0.34 | O=C(O)c1ccc2cc(Cl)cc(-c3cccc4ccccc34)c2n1 [Example 54, 6-Chloro-8-naphthalen-1-yl-quinoline-2-carboxylic acid] |
| 2.3 | O=P(O)(O)CCc1ccc2cccc(-c3cccc4ccccc34)c2n1 [Example 41, [2-(8-Naphthalen-1-yl-quinolin-2-yl)-ethyl]-phosphonic acid] |
| 4.1 | O=P(O)(O)CNc1ccc2cccc(-c3cccc4ccccc34)c2n1 [Example 5, [(8-Naphthalen-1-yl-quinolin-2-ylamino)-methyl]-phosphonic acid] |
| 40.3 | O=C(NCP(=O)(O)O)c1ccc2cccc(-c3cccc4ccccc34)c2n1 [Example 3, {[(8-Naphthalen-1-yl-quinoline-2-carbonyl)-amino]-methyl}-phosphonic acid] |
| 0.007 | O=P(O)(O)/C=C/c1ccc2cccc(-c3cccc4ccccc34)c2n1 [Example 40, [(E)-2-(8-Naphthalen-1-yl-quinolin-2-yl)-vinyl]-phosphonic acid] |
| 2.7 | O=C(O)c1ccc2cccc(-c3cccc4ncccc34)c2n1 [Example 2.c.ii] |
| 7.9 | O=P(O)(O)Cc1ccc2cccc(-c3cccc4ccccc34)c2n1 [Example 11, (8-Naphthalen-1-yl-quinolin-2-ylmethyl)-phosphonic acid] |
| 0.52 | O=C(O)c1ccc2cccc(-c3cccc4ccccc34)c2n1 [Example 1, 8-Naphthalen-1-quinoline-2-carboxylic acid] |

More lines, now with the values behind:

| Compound | IC50 [µM] |
| --- | --- |
| rac. 2-[(amino-sulfonyl)-amino]-3-[(8-naphthalen-1-yl-quinoline-2-carbonyl)-amino]-propionic acid [Example 15.b] | 54.3 |
| O=[N+]([O-])c1cc(-c2cccc3ccccc23)c2nc(NCP(=O)(O)O)ccc2c1 [Example 6, [(6-Nitro-8-naphthalen-1-yl-quinolin-2-ylamino)-methyl]-phosphonic acid] | 14 |
| CCOP(=O)(CNc1ccc2cc(-c3ccn([Si](C(C)C)(C(C)C)C(C)C)c3)cc(-c3cccc4ccccc34)c2n1)OCC [Example 9.1, {[8-Naphthalen-1-yl-6-(1-triisopropylsilanyl-1H-pyrrol-3-yl)-quinolin-2-ylamino]-methyl}-phosphonic acid diethyl ester] | > 100 |
| CCOP(=O)(CNc1ccc2cc(-c3cccnc3)cc(-c3cccc4ccccc34)c2n1)OCC [Example 10.1, [(8-Naphthalen-1-yl-6-pyridin-3-yl-quinolin-2-ylamino)-methyl]-phosphonic acid diethyl ester] | 2.8 |
| O=C(NCC1NS(=O)(=O)NC1=O)c1ccc2cccc(-c3cccc4ccccc34)c2n1 (racemic) [Example 15.a, rac. 8-Naphthalen-1-yl-quinoline-2-carboxylic acid (1,1,4-trioxo-1lambda*6*-[1,2,5]thiadiazolidin-3-ylmethyl)-amide] | > 100 |
| O=C(OCc1ccccc1)c1ccc2cccc(-c3cccc4ncccc34)c2n1 [Example 2.c.i] | > 10 |
| O=P(O)(O)CNc1ccc2cc(-c3cccnc3)cc(-c3cccc4ccccc34)c2n1 [Example 10, [(8-Naphthalen-1-yl-6-pyridin-3-yl-quinolin-2-ylamino)-methyl]-phosphonic acid] | 2.8 |
| COC(=O)C(CNC(=O)c1ccc2cccc(-c3cccc4ccccc34)c2n1)NS(N)(=O)=O (racemic) [Example 14, rac. 2-[(Amino-sulfonyl)-amino]-3-[(8-naphthalen-1-yl-quinoline-2-carbonyl)amino]-propionic acid methyl ester] | 39.7 |
| O=P(O)(O)CNc1ccc2cc(-c3cc[nH]c3)cc(-c3cccc4ccccc34)c2n1 [Example 9, {[8-Naphthalen-1-yl-6-(1H-pyrrol-3-yl)-quinolin-2-ylamino]-methyl}-phosphonic acid] | 21.5 |
| O=C(O)c1ccc2cccc(-c3cccc4[nH]c(=O)ccc34)c2n1 [Example 2.g.ii] | > 100 |
| O=P(O)(O)CNCc1ccc2cccc(-c3cccc4ccccc34)c2n1 [Example 12, {[(8-Naphthalen-1-yl-quinolin-2-ylmethyl)-amino]-methyl}-phosphonic acid] | > 100 |
| COC(=O)C(CNC(=O)c1ccc2cccc(-c3cccc4ccccc34)c2n1)NS(=O)(=O)NC(=O)OC(C)(C)C (racemic) [Example 13, rac. 2-[(tert-Butoxycarbonylamino-sulfonyl)-amino]-3-[(8-naphthalen-1-yl-quinoline-2-carbonyl)-amino]-propionic acid methyl ester] | 13.5 |
| O=C(OCc1ccccc1)c1ccc2cccc(-c3cccc4c3CCCC4=O)c2n1 [Example 2.d.i] | > 10 |
| O=C(OCc1ccccc1)c1ccc2cccc(-c3cccc4cnccc34)c2n1 [Example 2.b.i] | > 10 |
| O=C(OCc1ccccc1)c1ccc2cccc(-c3cccc4[nH]c(=O)ccc34)c2n1 [Example 2.g.i] | 19.7 |
